Among the data in ChEMBL document CHEMBL4321828, “Recent developments on (-)-colchicine derivatives: Synthesis and structure-activity relationship” (Eur J Med Chem, 2020) are IC50 and Activity values, retold here.

Data set [1] relates to MCF7. Briefly: Antiproliferative activity against human MCF7 cells assessed as reduction in cell viability. In kind it is functional, cell-based.
For data set [2], the system named is DLD-1. Briefly: Antiproliferative activity against human DLD1 cells assessed as reduction in cell viability. In kind it is functional, cell-based.
Data set [3] has as its system MDA-MB-231. Briefly: Antiproliferative activity against human MDA-MB-231 cells assessed as reduction in cell viability. The class given is functional, cell-based.
Data set [4] relates to LoVo. Description: Antiproliferative activity against human LoVo cells assessed as reduction in cell viability. In kind it is functional, cell-based.
Data set [5] relates to KB 3-1. Briefly: Antiproliferative activity against human KB3-1 cells assessed as reduction in cell viability after 96 hrs by methylene blue staining based spectrophotometric method. In kind it is functional. Conditions: KB 3-1, 96 h.
Data set [6] can be described thus: Antiproliferative activity against human KB-8-5-11 cells assessed as reduction in cell viability after 96 hrs by methylene blue staining based spectrophotometric method. In kind it is functional.
Data set [7] has as its system Bel-7402. Description: Antiproliferative activity against human Bel7402 cells assessed as reduction in cell viability by MTT assay. The class given is functional, cell-based.
Data set [8] concerns A2780. Briefly: Antiproliferative activity against human A2780 cells assessed as reduction in cell viability by MTT assay. In kind it is functional, cell-based. (Tetrazolium assays rely on reduction of a dye to a coloured formazan, in cell work by metabolically active cells.)
The test system of data set [9] is MCF7. Description: Antiproliferative activity against human MCF7 cells assessed as reduction in cell viability by MTT assay. The class given is functional, cell-based.
Data set [10] concerns A549. Description: Antiproliferative activity against human A549 cells assessed as reduction in cell viability by MTT assay. The class given is functional, cell-based.
Data set [11] has as its system SK-MEL-2. Description: Antiproliferative activity against human SK-MEL-2 cells assessed as reduction in cell viability incubated for 24 hrs by SRB assay. In kind it is functional, cell-based. Conditions: SK-MEL-2, 24 h. For orientation: Sulforhodamine B stains cellular protein and so reports cell mass.
The subject of data set [12] is A549. Description: Antiproliferative activity against human A549 cells assessed as reduction in cell viability incubated for 24 hrs by SRB assay. The class given is functional, cell-based. Conditions: A549, 24 h.
For data set [13], the system named is HCT-116. Description: Antiproliferative activity against human HCT116 cells assessed as reduction in cell viability incubated for 48 hrs by MTT assay. Conditions: HCT-116, 48 h. In kind it is functional, cell-based.
Data set [14] deals with SK-OV-3. Briefly: Antiproliferative activity against human SKOV3 cells assessed as reduction in cell viability incubated for 24 hrs by SRB assay. In kind it is functional, cell-based. Conditions: SK-OV-3, 24 h.
The subject of data set [15] is MCF7. Description: Antiproliferative activity against human MCF7 cells assessed as reduction in cell viability incubated for 24 hrs by SRB assay. In kind it is functional, cell-based. Conditions: MCF7, 24 h.
Data set [16] relates to HCT-15. Briefly: Antiproliferative activity against human HCT15 cells assessed as reduction in cell viability incubated for 24 hrs by SRB assay. The class given is functional, cell-based. Conditions: HCT-15, 24 h.
The target of data set [17] is ATP-dependent translocase ABCB1 (Homo sapiens, UniProt P08183). Briefly: Induction of P-gp in human LS180 cells assessed as […] in intracellular accumulation of Rh123 at 100 nM using Rho123 as substrate preincubated for 48 hrs followed by addition of Rh123 and measured after 90 mins by fluorescence based assay relative to control. The class given is cell-based. Conditions: ls180, 48 h preincubation, then 1.5 h with Rh123, 0.1 µM.
Chain of ATP-dependent translocase ABCB1 (P08183 whole entry): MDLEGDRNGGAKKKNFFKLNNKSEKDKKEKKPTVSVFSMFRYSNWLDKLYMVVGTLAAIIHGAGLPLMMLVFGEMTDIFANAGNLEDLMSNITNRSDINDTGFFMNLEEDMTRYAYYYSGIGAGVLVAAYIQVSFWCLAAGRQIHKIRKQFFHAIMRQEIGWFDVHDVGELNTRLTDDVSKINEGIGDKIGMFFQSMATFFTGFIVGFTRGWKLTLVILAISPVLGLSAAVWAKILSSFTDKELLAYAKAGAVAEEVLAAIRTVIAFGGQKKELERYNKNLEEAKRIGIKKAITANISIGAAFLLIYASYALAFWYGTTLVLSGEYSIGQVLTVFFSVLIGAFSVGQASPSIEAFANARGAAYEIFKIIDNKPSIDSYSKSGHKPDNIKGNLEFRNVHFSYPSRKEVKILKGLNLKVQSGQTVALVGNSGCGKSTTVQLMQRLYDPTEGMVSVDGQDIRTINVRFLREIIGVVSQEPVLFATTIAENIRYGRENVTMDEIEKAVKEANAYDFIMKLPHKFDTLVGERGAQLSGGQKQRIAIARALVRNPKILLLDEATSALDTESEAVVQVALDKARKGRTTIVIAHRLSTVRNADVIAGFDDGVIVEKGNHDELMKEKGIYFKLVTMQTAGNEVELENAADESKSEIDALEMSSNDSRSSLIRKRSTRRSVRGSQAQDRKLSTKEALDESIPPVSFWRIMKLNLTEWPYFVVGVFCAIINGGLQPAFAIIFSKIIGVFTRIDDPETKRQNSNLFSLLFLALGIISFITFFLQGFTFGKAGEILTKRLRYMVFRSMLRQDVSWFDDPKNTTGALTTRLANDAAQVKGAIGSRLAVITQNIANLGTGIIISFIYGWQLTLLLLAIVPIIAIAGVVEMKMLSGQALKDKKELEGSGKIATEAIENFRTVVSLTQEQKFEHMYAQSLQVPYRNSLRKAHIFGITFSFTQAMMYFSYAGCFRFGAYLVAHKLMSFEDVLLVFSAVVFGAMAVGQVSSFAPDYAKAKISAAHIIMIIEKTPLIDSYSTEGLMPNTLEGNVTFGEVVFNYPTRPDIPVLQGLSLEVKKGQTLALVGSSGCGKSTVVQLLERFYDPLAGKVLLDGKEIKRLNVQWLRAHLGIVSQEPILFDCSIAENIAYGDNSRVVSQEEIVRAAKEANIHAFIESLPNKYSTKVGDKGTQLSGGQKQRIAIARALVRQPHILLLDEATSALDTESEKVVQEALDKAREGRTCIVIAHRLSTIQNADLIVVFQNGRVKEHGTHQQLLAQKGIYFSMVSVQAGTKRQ

On to `CCCSc1ccc2c(cc1=O)[C@@H](NC(C)=O)CCc1cc(OC)c(OC)c(OC)c1-2`, for which the IC50 (commonly the concentration at which inhibition is half-maximal) was found to be 764 nM in data set [1], 71.8 nM in [2], 704 nM in data set [3] and 56.1 nM in [4].

Regarding `CCSc1ccc2c(cc1=O)[C@@H](NC(C)=O)CCc1cc(OC)c(OC)c(OC)c1-2`, the concentration for half-maximal inhibition (IC50) in data set [1] amounted to 56.1 nM; in data set [2], 51.2 nM; in data set [3], 148 nM; in [4], 19.5 nM.

For the compound `CCCCSc1ccc2c(cc1=O)[C@@H](NC(C)=O)CCc1cc(OC)c(OC)c(OC)c1-2`, the IC50 in [1] was 874 nM; in [2] it was 317 nM; in data set [3], 1770 nM; in data set [4], 438 nM.

For `COc1cc2c(c(OC)c1OC)-c1ccc(SC(C)C)c(=O)cc1[C@@H](NC(C)=O)CC2`, the IC50 in [1] was 564 nM; in data set [2], 177 nM; in data set [3] it was 1100 nM; in data set [4], 150 nM.

As for `COc1c(CO)c2c(c(OC)c1OC)-c1ccc(OC)c(=O)cc1[C@@H](NC(C)=O)CC2`, the IC50 in data set [5] is 260 nM; in data set [6] it was over 1000 nM.

Take `COc1c(COC(C)=O)c2c(c(OC)c1OC)-c1ccc(OC)c(=O)cc1[C@@H](NC(C)=O)CC2`: the IC50 in data set [5] and in data set [6] was over 1000 nM each time.

Take `CNc1ccc2c(cc1=O)[C@@H](NC(=O)CCC(=O)OCCCCCCO[N+](=O)[O-])CCc1cc(OC)c(OC)c(OC)c1-2`: the half-maximal inhibitory concentration (IC50) in [7] was 86 nM; in [8], 109 nM; in data set [9], 95 nM; in [10] it was 205 nM.

As to `CNc1ccc2c(cc1=O)[C@@H](NC(=O)CCC(=O)OC/C=C/CO[N+](=O)[O-])CCc1cc(OC)c(OC)c(OC)c1-2`, the 50% inhibitory concentration (IC50) was 120 nM in data set [7], 205 nM in data set [8], 202 nM in [9] and 135 nM in [10].

As to `COc1c(COC2CCCCO2)c2c(c(OC)c1OC)-c1ccc(OC)c(=O)cc1[C@@H](NC(C)=O)CC2` (stereo not given in full), the concentration for half-maximal inhibition (IC50) in [5] and in data set [6] was over 1000 nM throughout.

On to `COc1cc2c(c(OC)c1OC)-c1ccc(OC)c(=O)cc1[C@@H](NC(C)=O)CC2` [COLCHICINE], for which the half-maximal inhibitory concentration (IC50) was 6 nM in data set [11]; 21 nM in data set [12]; 50 nM in [13]; 18 nM in data set [14]; over 300 nM in data set [15]; 25.3 nM in [3]. In addition, the IC50 in [16] amounted to 9 nM. In data set [17], the Activity is reported as 62.91%.

On to `COc1cccc2c1C(=O)c1c(O)c3c(c(O)c1C2=O)C[C@@](O)(C(=O)CO)C[C@@H]3O[C@H]1C[C@H](N)[C@H](O)[C@H](C)O1` [DOXORUBICIN], for which the IC50 in [11] stood at 11.7 nM; in data set [12], 14.7 nM; in data set [14], 34.2 nM; in data set [2] it was 511 nM; in [3] it was 936 nM; in data set [16] it was 16.4 nM. The IC50 in data set [4] was 520 nM.
